Test results published in the supplement of paper PMC10307832.

Experiments:
Assay in all cases: relative viability (nuclei count vs DMSO), 5 days (fraction); higher = more cells survive
RO-3306 + Vorinostat = compound: C1=CC2=C(C=CC(=C2)C=C3C(=O)NC(=NCC4=CC=CS4)S3)N=C1 [RO-3306] + O=C(CCCCCCC(=O)Nc1ccccc1)NO [Vorinostat] (partner 1 µM)
Method in brief: (§1)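 The day after seeding in 1536-well plates, lung cancer cell lines were treated by pin tool with a single drug, or with a fixed anchor-drug dose together with five library-drug doses (not always all listed) in √10 steps. After 5 days, a combined fix-and-stain solution (final 0.05% Triton X-100, 1% formaldehyde, 1 ug/ml Hoechst) was added. Nuclei counted on 4× images gave relative viability as treated counts over vehicle counts, reported as the median of duplicate plates.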

RO-3306 + OSI-027 = compound: C1=CC2=C(C=CC(=C2)C=C3C(=O)NC(=NCC4=CC=CS4)S3)N=C1 [RO-3306] + COc1cccc2cc(-c3nc([C@H]4CC[C@H](C(=O)O)CC4)n4ncnc(N)c34)[nH]c12 [OSI-027] (partner 0.5 µM)
Method in brief: as §1

[1] = compound: O=S(=O)(c1ccccc1)N(CC(F)(F)F)c1ccc(C(O)(C(F)(F)F)C(F)(F)F)cc1 + CS(=O)(=O)N1CCN(Cc2cc3nc(-c4cccc5[nH]ncc45)nc(N4CCOCC4)c3s2)CC1 [Pictilisib] (partner 1 µM)
Method in brief: as §1

[2] = compound: O=S(=O)(c1ccccc1)N(CC(F)(F)F)c1ccc(C(O)(C(F)(F)F)C(F)(F)F)cc1 + O=C(c1cc(Cc2n[nH]c(=O)c3ccccc23)ccc1F)N1CCN(C(=O)C2CC2)CC1 [Olaparib] (partner 8 µM)
Method in brief: as §1

[3] = compound: O=S(=O)(c1ccccc1)N(CC(F)(F)F)c1ccc(C(O)(C(F)(F)F)C(F)(F)F)cc1 + COc1cc2c(Oc3ccc(NC(=O)C4(C(=O)Nc5ccc(F)cc5)CC4)cc3F)ccnc2cc1OCCCN1CCOCC1 [Foretinib] (partner 0.25 µM)
Method in brief: as §1

Cell Line | relative viability (RO-3306 + Vorinostat; first compound 0.01 µM) | relative viability (RO-3306 + Vorinostat; first compound 0.03162 µM) | relative viability (RO-3306 + Vorinostat; first compound 0.1 µM) | relative viability (RO-3306 + Vorinostat; first compound 0.3162 µM) | relative viability (RO-3306 + Vorinostat; first compound 1 µM) | relative viability (RO-3306 + OSI-027; first compound 0.01 µM) | relative viability (RO-3306 + OSI-027; first compound 0.03162 µM) | relative viability (RO-3306 + OSI-027; first compound 0.1 µM) | relative viability (RO-3306 + OSI-027; first compound 0.3162 µM) | relative viability (RO-3306 + OSI-027; first compound 1 µM) | relative viability ([1]; first compound 0.8 µM) | relative viability ([1]; first compound 2.53 µM) | relative viability ([1]; first compound 8 µM) | relative viability ([2]; first compound 0.8 µM) | relative viability ([2]; first compound 2.53 µM) | relative viability ([2]; first compound 8 µM) | relative viability ([3]; first compound 0.8 µM) | relative viability ([3]; first compound 2.53 µM) | relative viability ([3]; first compound 8 µM)
LXF-289 | 0.789 | 0.807 | 0.695 | 0.749 | 0.744 | 0.801 | 0.778 | 0.681 | 0.739 | 0.63 | 0.624 | 0.637 | 0.588 | 1.03 | 0.91 | 1.04 | 0.993 | 0.88 | 0.812
NCI-H23 | 0.828 | – | 0.547 | 0.55 | 0.501 | 0.531 | 0.462 | 0.575 | 0.519 | 0.403 | 0.641 | 0.521 | 0.538 | 0.31 | 0.23 | 0.302 | 1.02 | 1.16 | 1
NCI-H322M | 0.878 | 0.859 | 0.807 | 0.868 | 0.584 | 0.535 | 0.527 | 0.532 | 0.571 | 0.503 | 0.551 | 0.529 | 0.541 | 0.81 | 0.734 | 0.857 | 1.08 | 0.915 | 0.953
NCI-H358 | 0.821 | 0.603 | 0.596 | 0.638 | 0.524 | 0.587 | 0.658 | 0.79 | 0.741 | 0.59 | 0.274 | 0.28 | 0.286 | – | 0.563 | 0.517 | 0.592 | 0.557 | 0.45
NCI-H441 | 0.888 | 0.495 | 0.837 | 1.23 | 0.638 | 0.555 | 0.506 | 0.541 | 0.617 | 0.534 | 0.523 | 0.401 | 0.495 | 0.657 | 0.469 | 0.654 | 0.916 | 0.927 | 0.952
NCI-H460 | 1.19 | 0.517 | 0.677 | 0.976 | 0.448 | 0.613 | 0.492 | 0.654 | 0.835 | 0.605 | 0.436 | 0.333 | 0.362 | 0.452 | 0.432 | 0.407 | 1.14 | 0.889 | 0.778
NCI-H520 | 0.779 | 0.589 | 0.676 | 0.693 | 0.664 | 0.288 | 0.283 | 0.225 | 0.254 | 0.304 | 0.31 | 0.258 | 0.387 | 0.333 | 0.346 | 0.32 | 0.923 | 0.686 | 0.699
NCI-H596 | 0.589 | 0.512 | 0.533 | 0.726 | 0.713 | 0.788 | 0.72 | 0.7 | 0.729 | 0.579 | 0.353 | 0.342 | 0.335 | 0.634 | 0.681 | 0.651 | 0.876 | 0.711 | 0.887
NCI-H647 | 0.708 | 0.512 | 0.371 | 0.6 | 0.473 | 0.644 | 0.608 | 0.636 | 0.84 | 0.673 | 0.323 | 0.345 | 0.372 | 0.667 | 0.418 | 0.6 | 1.48 | 1.19 | 1.03
